Measured values taken from patent US8778923B2, “GLP-1 receptor modulators” (Receptos, Inc., priority 2011, dated 2014).

Biological target: T1, GLP-1R (Homo sapiens, UniProt P43220)
T1 construct: host or cells: CRE-bla CHO-K1
Experiment: EC20 GLP-1(9-36) PAM cAMP assay: dose response of compound in the presence of fixed concentration of GLP-1(9-36)
Assay type: cell-based
Details: GLP-1R CRE-bla CHO-K1 cells, compound dose response in presence of fixed concentration of GLP-1(9-36)
Outline: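 Positive allosteric modulation read as cAMP rise: 12-point compound titration combined with a fixed EC20 level of GLP-1(9-36) on GLP-1R CHO-K1 cells, IBMX present, 30 min at 37 °C. Luminescent HitHunter signal converted to cAMP; nonlinear fit gave EC50 and Emax.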

T1 sequence (P43220 24-463): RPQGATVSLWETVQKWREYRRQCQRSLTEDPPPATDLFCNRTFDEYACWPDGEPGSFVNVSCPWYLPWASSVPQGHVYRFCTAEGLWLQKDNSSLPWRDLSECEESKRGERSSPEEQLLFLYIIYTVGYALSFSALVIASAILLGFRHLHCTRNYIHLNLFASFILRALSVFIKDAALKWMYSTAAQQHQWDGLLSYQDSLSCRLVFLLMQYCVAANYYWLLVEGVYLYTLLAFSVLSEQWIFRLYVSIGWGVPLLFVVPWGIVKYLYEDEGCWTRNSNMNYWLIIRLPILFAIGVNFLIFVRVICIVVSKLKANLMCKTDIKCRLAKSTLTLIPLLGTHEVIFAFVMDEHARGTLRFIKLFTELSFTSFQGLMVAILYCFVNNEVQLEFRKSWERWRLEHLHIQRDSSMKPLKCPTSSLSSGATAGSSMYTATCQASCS
T1 sequence (P01275 100-127 partner limits assumed): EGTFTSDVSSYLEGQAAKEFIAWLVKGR

Row | SMILES | EC50 [nM]
1 | CCCCCCCOc1ccc(-c2cnc(-c3ccc(C[C@H](NC(=O)c4ccc(C(C)(C)C)cc4)C(=O)NCC(=O)Nc4nn[nH]n4)cc3)nc2)cc1 [Compound 303] | 800 to 2500
2 | CCCCCCCOc1ccc(-c2cnc(-c3ccc(C[C@H](NC(=O)c4ccc(C(C)(C)C)cc4)C(=O)N(C)CC(=O)O)cc3)nc2)cc1 [Compound 304] | 800 to 2500
3 | CCCCCCCOc1ccc(-c2cnc(-c3ccc(C[C@H](NC(=O)c4ccc(C(C)(C)C)cc4)C(=O)NCC(=O)NS(C)(=O)=O)cc3)nc2)cc1 [Compound 381, (S)-4-(tert-butyl)-N-(3-(4-(5-(4-(heptyloxy)phenyl)pyrimidin-2-yl)phenyl)-1-((2-(methylsulfonamido)-2-oxoethyl)amino)-1-oxopropan-2-yl)benzamide] | 800 to 2500
4 | CCCCCCCOc1ccc(-c2cnc(-c3ccc(C[C@H](NC(=O)c4ccc(C(C)(C)C)cc4)C(=O)O)cc3)nc2)cc1 [Compound 85, (S)-2-(4-(tert-butyl)benzamido)-3-(4-(5-(4-(heptyloxy)phenyl)pyrimidin-2-yl)phenyl)propanoic acid] | 800 to 2500
5 | CC(C)(C)c1ccc(C(=O)N[C@@H](Cc2ccc(-c3ncc(OCc4ccccc4)cn3)cc2)C(=O)O)cc1 [Compound 258] | 5000 to 10000
6 | CCCCCCCOc1ccc(-c2cnc(-c3ccc(C[C@H](NC(=O)c4cnn(C(C)(C)C)c4)C(=O)NCC(=O)O)cc3)nc2)cc1 [Compound 372] | < 800
7 | CCCCCCCOc1ccc(-c2cnc(-c3ccc(C[C@H](NC(=O)c4ccc(C(C)(C)C)s4)C(=O)N4CCNC(C(=O)O)C4)cc3)nc2)cc1 (stereo partly shown) [Compound 339] | 800 to 2500
8 | CCCCCCCOc1ccc(-c2cnc(-c3ccc(C[C@H](NC(=O)c4ccc(N(C)C)cc4)C(=O)O)cc3)nc2)cc1 [Compound 96] | 2500 to 5000
9 | COc1ccc(-c2nc(-c3ccc(C[C@H](NC(=O)c4ccc(C(C)(C)C)cc4)C(=O)O)cc3)no2)cc1OC [Compound 37] | 2500 to 5000
10 | CCCCCCCOc1ccc(-c2ccc(-c3ccc(C[C@H](NC(=O)c4ccc(C(C)(C)C)cc4)C(=O)O)cc3)nc2)cc1 [Compound 269] | 800 to 2500
11 | CCCCCCCOc1ccc(-c2cnc(-c3ccc(C[C@H](NC(=O)c4ccc(C(C)C)cc4)C(=O)N[C@@H](CC(C)C)C(=O)O)cc3)nc2)cc1 [Compound 308] | 800 to 2500
12 | CCCCCCCCOc1ccc(-c2cnc(-c3ccc(C[C@H](NC(=O)c4ccc(C(C)(C)C)s4)C(=O)O)cc3)nc2)cc1 [Compound 259] | 800 to 2500
13 | CCCCCCCOc1ccc(-c2cnc(-c3ccc(C[C@H](NC(=O)c4cc5c(s4)CCCC5)C(=O)O)cc3)nc2)cc1 [Compound 149] | 800 to 2500
14 | CCCCCCCOc1ccc(-c2cnc(-c3ccc(C[C@H](NC(=O)c4ccc(C(C)C)cc4)C(=O)NCC(=O)O)cc3)nc2)cc1 [Compound 317] | < 800
15 | CCCCCCCOc1ccc(-c2cnc(-c3ccc(C[C@H](NC(=O)c4ccc(-c5ccccc5)cc4)C(=O)O)cc3)nc2)cc1 [Compound 91] | 800 to 2500
16 | CCCCCCCOc1ccc(-c2cnc(-c3ccc(C[C@H](NC(=O)c4ccc(OS(C)(=O)=O)cc4)C(=O)O)cc3)nc2)cc1 [Compound 183] | 800 to 2500
17 | CCCCCCCOc1ccc(-c2cnc(-c3ccc(C[C@H](NC(=O)c4ccc(CC)cc4)C(=O)O)cc3)nc2)cc1 [Compound 89] | 800 to 2500
18 | CCCCCCCOc1ccc(-c2cnc(-c3ccc(C[C@H](NC(=O)c4ccc(C(C)(C)C)s4)C(=O)N[C@H](C)C(=O)O)cc3)nc2)cc1 [Compound 327] | < 800
19 | CC(C)(C)c1ccc(C(=O)N[C@@H](Cc2ccc(-c3ncc(-c4ccc(F)cc4F)cn3)cc2)C(=O)O)cc1 [Compound 208] | 2500 to 5000
20 | CN(C)c1ccc(-c2cnc(-c3ccc(C[C@H](NC(=O)c4ccc(C(C)(C)C)cc4)C(=O)O)cc3)nc2)cc1 [Compound 201] | 2500 to 5000
21 | CCCCCCCOc1cccc(-c2cnc(-c3ccc(C[C@H](NC(=O)c4ccc(C(C)(C)C)cc4)C(=O)O)cc3)nc2)c1 [Compound 219] | 800 to 2500
22 | CCCCCCCOc1ccc(-c2cnc(-c3ccc(C[C@H](NC(=O)c4coc(C(C)(C)C)n4)C(=O)O)cc3)nc2)cc1 [Compound 296] | 800 to 2500
